Our source for the IC50 values is patent US20240217978A1 (CHONG KUN DANG PHARMACEUTICAL CORP., priority 2021, published 2024).

The term IC50 denotes the concentration at which inhibition is half-maximal. A low value points to higher potency.

The experiment concerns the target human adenosine A2a receptor (Homo sapiens (Human), UniProt P29274). Put plainly: A2a receptor binding affinity, [3H]-NECA radioligand binding test. The conditions noted are these: [3H]-NECA 37 nM; membrane from HEK-293 cells transfected with human adenosine A2a receptor. A digest of the protocol:
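IC50 values (μM) come from displacement of [3H]-NECA, used at 37 nM final, on human A2a receptor membranes from transfected HEK-293 cells. Incubation lasted one hour at room temperature in Tris/MgCl2/EDTA buffer, pH 7.4; filter-bound radioactivity was counted by scintillation.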

Chain of human adenosine A2a receptor (P29274 whole entry): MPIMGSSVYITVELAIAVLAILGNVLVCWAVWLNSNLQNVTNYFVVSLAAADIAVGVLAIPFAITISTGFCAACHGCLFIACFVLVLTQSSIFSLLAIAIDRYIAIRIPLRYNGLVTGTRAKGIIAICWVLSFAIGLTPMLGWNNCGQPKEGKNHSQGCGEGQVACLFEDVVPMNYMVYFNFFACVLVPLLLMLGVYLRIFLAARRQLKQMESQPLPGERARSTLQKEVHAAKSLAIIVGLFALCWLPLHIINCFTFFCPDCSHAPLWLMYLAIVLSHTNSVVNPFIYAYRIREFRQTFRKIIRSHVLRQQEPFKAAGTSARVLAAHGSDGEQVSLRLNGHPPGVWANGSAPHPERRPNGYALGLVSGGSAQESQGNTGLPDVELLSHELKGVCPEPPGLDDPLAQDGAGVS

The molecule `Nc1nc(N2CCC[C@H]2C(=O)N2CC3(CCN(CC(F)(F)F)CC3)C2)nc2nc(-c3ccco3)nn12` [Example 363, (S)-(1-(7-amino-2-(furan-2-yl)-[1,2,4]triazolo[1,5-a][1,3,5]triazin-5-yl)pyrrolidin-2-yl)(7-(2,2,2-trifluoroethyl)-2,7-diazaspiro[3-5]nonan-2-yl)methanone] had an IC50 of 12 nM.

On to `CCCCN1CCN(C(=O)[C@H](Cc2ccccc2)Nc2nc(N)n3nc(-c4ccco4)nc3n2)CC1` [Example 191, (S)-2-((7-amino-2-(furan-2-yl)-[1,2,4]triazolo[1,5-a][1,3,5]triazin-5-yl)amino)-1-(4-butylpiperazin-1-yl)-3-phenylpropan-1-one], for which the IC50 was determined as 6 nM. The figure for `CC(C)(F)CN1CCN(C(=O)[C@H](CO)Nc2nc(N)n3nc(-c4ccco4)nc3n2)CC1` [Example 232, (S)-2-((7-amino-2-(furan-2-yl)-[1,2,4]triazolo[1,5-a][1,3,5]triazin-5-yl)amino)-1-(4-(2-fluoro-2-methylpropyl)piperazin-1-yl)-3-hydroxypropan-1-one] is 40 nM; for `Nc1nc(N2CCC[C@H]2C(=O)N2CCN(C3COC3)CC2)nc2nc(-c3ccco3)nn12` [Example 403, (S)-(1-(7-amino-2-(furan-2-yl)-[1,2,4]triazolo[1,5-a][1,3,5]triazin-5-yl)pyrrolidin-2-yl)(4-(oxetan-3-yl)piperazin-1-yl)methanone] it is 9 nM.

On to `COCCOCCN1CCN(C(=O)[C@@H]2CCCN2c2nc(N)n3nc(-c4ccco4)nc3n2)CC1` [Example 141, (S)-(1-(7-amino-2-(furan-2-yl)-[1,2,4]triazolo[1,5-a][1,3,5]triazin-5-yl)pyrrolidin-2-yl)(4-(2-(2-methoxyethoxy)ethyl)piperazin-1-yl)methanone], for which the IC50 was 15 nM.

For `Cc1ccc(-c2nc3nc(N4CCC[C@H]4C(=O)N4CCN(C5CCCCC5)CC4)nc(N)n3n2)o1` [Example 84, (S)-(1-(7-amino-2-(5-methylfuran-2-yl)-[1,2,4]triazolo[1,5-a][1,3,5]triazin-5-yl)pyrrolidin-2-yl)(4-cyclohexylpiperazin-1-yl)methanone], the IC50 came to 14 nM. Then `CC(C)(F)CN1CCN(C(=O)[C@@H](Nc2nc(N)n3nc(-c4ccco4)nc3n2)C2CCCCC2)CC1` [Example 147, (S)-2-((7-amino-2-(furan-2-yl)-[1,2,4]triazolo[1,5-a][1,3,5]triazin-5-yl)amino)-2-cyclohexyl-1-(4-(2-fluoro-2-methylpropyl)piperazin-1-yl)ethan-1-one], with 3 nM; and `CC1CN(C(=O)[C@H](C)Nc2nc(N)n3nc(-c4ccco4)nc3n2)CC(C)N1C(=O)N1CCOCC1` (stereo partly drawn) [Example 129, (2S)-2-((7-amino-2-(furan-2-yl)-[1,2,4]triazolo[1,5-a][1,3,5]triazin-5-yl)amino)-1-(3,5-dimethyl-4-(morpholine-4-carbonyl)piperazin-1-yl)propan-1-one], with 10 nM. Then `CC(C)(C)C1CCC(N2CCN(C(=O)[C@@H]3CCCN3c3nc(N)n4nc(-c5ccco5)nc4n3)CC2)CC1` (stereo partly drawn) [Example 154, (S)-(1-(7-amino-2-(furan-2-yl)-[1,2,4]triazolo[1,5-a][1,3,5]triazin-5-yl)pyrrolidin-2-yl)(4-(4-(tert-butyl)cyclohexyl)piperazin-1-yl)methanone], with 10 nM; and `CC(C)(O)CN1CCC(C2CCN(C(=O)[C@@H]3CCN3c3cc4nc(-c5ccco5)nn4c(N)n3)CC2)CC1` [Example 381, (S)-(1-(5-amino-2-(furan-2-yl)-[1,2,4]triazolo[1,5-c]pyrimidin-7-yl)azetidin-2-yl)(1′-(2-hydroxy-2-methylpropyl)-[4,4′-bipiperidin]-1-yl)methanone], with 9 nM. Then `Nc1nc(N2CCC[C@H]2C(=O)N2CCN(c3ccccc3)CC2)nc2nc(-c3ccco3)nn12` [Example 151, (S)-(1-(7-amino-2-(furan-2-yl)-[1,2,4]triazolo[1,5-a][1,3,5]triazin-5-yl)pyrrolidin-2-yl)(4-phenylpiperazin-1-yl)methanone], with 13 nM; and `CC(C)(F)CN1CCN(C(=O)[C@@H](Nc2nc(N)n3nc(-c4ccco4)nc3n2)c2ccccc2)CC1` [Example 195, (S)-2-((7-amino-2-(furan-2-yl)-[1,2,4]triazolo[1,5-a][1,3,5]triazin-5-yl)amino)-1-(4-(2-fluoro-2-methylpropyl)piperazin-1-yl)-2-phenylethan-1-one], with 3 nM; and `Cc1ccc(-c2nc3nc(N4CCC[C@H]4C(=O)N4CCN(c5ncccn5)CC4)nc(N)n3n2)o1` [Example 203, (S)-(1-(7-amino-2-(5-methylfuran-2-yl)-[1,2,4]triazolo[1,5-a][1,3,5]triazin-5-yl)pyrrolidin-2-yl)(4-(pyrimidin-2-yl)piperazin-1-yl)methanone], with 6 nM. For `Cc1ccc(-c2nc3nc(N4CC[C@H]4C(=O)N4CCN(c5ccc(F)cc5F)CC4)nc(N)n3n2)o1` [Example 209, (S)-(1-(7-amino-2-(5-methylfuran-2-yl)-[1,2,4]triazolo[1,5-a][1,3,5]triazin-5-yl)azetidin-2-yl)(4-(2,4-difluorophenyl)piperazin-1-yl)methanone], the IC50 is 1 nM. For the molecule `Cc1ccc(-c2nc3nc(N4CCC[C@H]4C(=O)N4CCN(c5ccccc5C(F)(F)F)CC4)nc(N)n3n2)o1` [Example 200, (S)-(1-(7-amino-2-(5-methylfuran-2-yl)-[1,2,4]triazolo[1,5-a][1,3,5]triazin-5-yl)pyrrolidin-2-yl)(4-(2-(trifluoromethyl)phenyl)piperazin-1-yl)methanone], the half-inhibitory concentration (IC50) amounted to 1 nM. This lies in the single-digit nanomolar range.

In the case of `CCC[C@H](Nc1nc(N)n2nc(-c3ccco3)nc2n1)C(=O)N1CCN(c2ccc(F)cc2F)CC1` [Example 163, (S)-2-((7-amino-2-(furan-2-yl)-[1,2,4]triazolo[1,5-a][1,3,5]triazin-5-yl)amino)-1-(4-(2,4-difluorophenyl)piperazin-1-yl)pentan-1-one], the IC50 was 0.5 nM. Then `Nc1nc(N2CCC[C@H]2C(=O)N2CCN(c3ncc4c(n3)COC4)CC2)nc2nc(-c3ccco3)nn12` [Example 384, 2-(4-((7-amino-2-(furan-2-yl)-[1,2,4]triazolo[1,5-a][1,3,5]triazin-5-yl)-L-prolyl)piperazin-1-yl)-5,7-dihydrofuro[3,4-d]pyrimidine], with 0.5 nM; and `Nc1nc(N2CCC[C@H]2C(=O)N2CCN(CC(F)(F)F)CC23CC3)nc2nc(-c3ccco3)nn12` [Example 342, (S)-(1-(7-amino-2-(furan-2-yl)-[1,2,4]triazolo[1,5-a][1,3,5]triazin-5-yl)pyrrolidin-2-yl)(7-(2,2,2-trifluoroethyl)-4,7-diazaspiro[2.5]octan-4-yl)methanone], with 8 nM; and `C[C@H](Nc1nc(N)n2nc(-c3ccco3)nc2n1)C(=O)N1CC2(CCN(CC(C)(F)F)CC2)C1` [Example 366, (S)-2-((7-amino-2-(furan-2-yl)-[1,2,4]triazolo[1,5-a][1,3,5]triazin-5-yl)amino)-1-(7-(2,2-difluoropropyl)-2,7-diazaspiro[3-5]nonan-2-yl)propan-1-one], with 8 nM.

Turning to `Nc1nc(N2CCC[C@H]2C(=O)N2CCN(CC3(C(F)(F)F)CC3)CC2)nc2nc(-c3ccco3)nn12` [Example 283, (S)-(1-(7-amino-2-(furan-2-yl)-[1,2,4]triazolo[1,5-a][1,3,5]triazin-5-yl)pyrrolidin-2-yl)(4-((1-(trifluoromethyl)cyclopropyl)methyl)piperazin-1-yl)methanone], the IC50 was found to be 12 nM. Then `C[C@H](Nc1nc(N)n2nc(-c3ccco3)nc2n1)C(=O)N1CCN(CC(F)F)CC1` [Example 316, (S)-2-((7-amino-2-(furan-2-yl)-[1,2,4]triazolo[1,5-a][1,3,5]triazin-5-yl)amino)-1-(4-(2,2-difluoroethyl)piperazin-1-yl)propan-1-one], with 26 nM.
